Reference: ChEMBL document CHEMBL5465560, “Selectivity Literature for EUbOPEN Chemogenomic Library” (2024)

What was measured:
[1] = biological target: T1, Dual specificity tyrosine-phosphorylation-regulated kinase 2 (Homo sapiens) (UniProt Q92630); experiment: Selectivity interaction (ProQinase) EUB0000171b DYRK2
T1 sequence (whole entry): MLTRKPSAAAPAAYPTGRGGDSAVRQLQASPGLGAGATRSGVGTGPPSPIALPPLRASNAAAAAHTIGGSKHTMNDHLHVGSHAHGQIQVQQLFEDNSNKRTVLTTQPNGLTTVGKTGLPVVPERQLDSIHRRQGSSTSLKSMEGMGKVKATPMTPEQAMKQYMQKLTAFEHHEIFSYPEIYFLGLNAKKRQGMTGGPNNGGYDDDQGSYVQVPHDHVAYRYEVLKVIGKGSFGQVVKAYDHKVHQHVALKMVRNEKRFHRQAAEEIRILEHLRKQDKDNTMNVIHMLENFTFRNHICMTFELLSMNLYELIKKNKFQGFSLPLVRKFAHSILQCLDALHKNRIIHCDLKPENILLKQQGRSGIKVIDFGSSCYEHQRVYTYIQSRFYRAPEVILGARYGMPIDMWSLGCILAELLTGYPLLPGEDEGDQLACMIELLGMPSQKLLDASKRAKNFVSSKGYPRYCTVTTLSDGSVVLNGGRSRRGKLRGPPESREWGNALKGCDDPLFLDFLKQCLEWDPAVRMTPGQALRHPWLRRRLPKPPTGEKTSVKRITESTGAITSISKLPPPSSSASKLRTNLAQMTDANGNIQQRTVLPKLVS

[2] = biological target: Ribosomal protein S6 kinase alpha-3 (Homo sapiens, UniProt P51812); experiment: Selectivity interaction (KinomeScan (DiscoverX)) EUB0001079a RPS6KA3; details: at 1 µM
[3] = biological target: Receptor tyrosine-protein kinase erbB-4 (Homo sapiens, UniProt Q15303); experiment: Selectivity interaction (KinomeScan (DiscoverX)) EUB0000666a ERBB4; details: at 10 µM
Sequence of Receptor tyrosine-protein kinase erbB-4 (Q15303 whole entry): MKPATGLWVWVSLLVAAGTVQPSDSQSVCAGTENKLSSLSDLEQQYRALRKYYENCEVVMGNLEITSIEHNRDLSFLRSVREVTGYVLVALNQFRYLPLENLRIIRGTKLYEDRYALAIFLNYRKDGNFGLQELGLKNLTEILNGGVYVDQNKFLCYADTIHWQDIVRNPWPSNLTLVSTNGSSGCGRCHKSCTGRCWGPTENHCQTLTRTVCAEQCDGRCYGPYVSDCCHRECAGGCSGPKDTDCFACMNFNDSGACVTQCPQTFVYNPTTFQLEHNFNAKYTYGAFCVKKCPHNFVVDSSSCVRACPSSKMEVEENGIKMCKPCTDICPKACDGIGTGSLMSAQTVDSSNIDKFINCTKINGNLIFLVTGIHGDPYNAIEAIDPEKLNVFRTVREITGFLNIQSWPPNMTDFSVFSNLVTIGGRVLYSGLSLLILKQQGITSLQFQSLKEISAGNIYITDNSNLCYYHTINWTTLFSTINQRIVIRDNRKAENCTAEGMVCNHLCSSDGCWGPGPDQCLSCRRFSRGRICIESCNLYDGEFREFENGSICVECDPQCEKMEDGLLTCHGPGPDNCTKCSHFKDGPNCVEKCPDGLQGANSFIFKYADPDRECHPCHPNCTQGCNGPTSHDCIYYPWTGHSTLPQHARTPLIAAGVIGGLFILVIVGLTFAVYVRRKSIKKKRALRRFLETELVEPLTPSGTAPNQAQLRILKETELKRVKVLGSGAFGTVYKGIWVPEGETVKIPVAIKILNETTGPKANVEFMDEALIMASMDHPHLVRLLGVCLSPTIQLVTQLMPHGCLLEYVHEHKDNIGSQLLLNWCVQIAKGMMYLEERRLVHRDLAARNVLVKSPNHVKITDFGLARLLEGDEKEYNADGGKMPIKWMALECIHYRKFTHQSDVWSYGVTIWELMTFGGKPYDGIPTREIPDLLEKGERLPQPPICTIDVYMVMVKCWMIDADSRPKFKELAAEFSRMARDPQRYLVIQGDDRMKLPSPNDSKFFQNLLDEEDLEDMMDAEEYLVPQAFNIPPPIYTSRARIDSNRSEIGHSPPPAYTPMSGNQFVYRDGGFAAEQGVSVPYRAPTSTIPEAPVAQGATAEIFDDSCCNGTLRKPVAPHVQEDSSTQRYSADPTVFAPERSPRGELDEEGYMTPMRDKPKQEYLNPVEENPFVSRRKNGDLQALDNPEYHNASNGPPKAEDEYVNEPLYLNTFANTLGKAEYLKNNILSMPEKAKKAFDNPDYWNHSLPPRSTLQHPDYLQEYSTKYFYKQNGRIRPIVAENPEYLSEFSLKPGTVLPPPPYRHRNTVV

[4] = system: Fibroblast growth factor receptor 3 (Homo sapiens), P22607 [G697C]; details: at 10 µM
Sequence of Fibroblast growth factor receptor 3 (Homo sapiens), P22607 [G697C] (P22607 whole entry G697C): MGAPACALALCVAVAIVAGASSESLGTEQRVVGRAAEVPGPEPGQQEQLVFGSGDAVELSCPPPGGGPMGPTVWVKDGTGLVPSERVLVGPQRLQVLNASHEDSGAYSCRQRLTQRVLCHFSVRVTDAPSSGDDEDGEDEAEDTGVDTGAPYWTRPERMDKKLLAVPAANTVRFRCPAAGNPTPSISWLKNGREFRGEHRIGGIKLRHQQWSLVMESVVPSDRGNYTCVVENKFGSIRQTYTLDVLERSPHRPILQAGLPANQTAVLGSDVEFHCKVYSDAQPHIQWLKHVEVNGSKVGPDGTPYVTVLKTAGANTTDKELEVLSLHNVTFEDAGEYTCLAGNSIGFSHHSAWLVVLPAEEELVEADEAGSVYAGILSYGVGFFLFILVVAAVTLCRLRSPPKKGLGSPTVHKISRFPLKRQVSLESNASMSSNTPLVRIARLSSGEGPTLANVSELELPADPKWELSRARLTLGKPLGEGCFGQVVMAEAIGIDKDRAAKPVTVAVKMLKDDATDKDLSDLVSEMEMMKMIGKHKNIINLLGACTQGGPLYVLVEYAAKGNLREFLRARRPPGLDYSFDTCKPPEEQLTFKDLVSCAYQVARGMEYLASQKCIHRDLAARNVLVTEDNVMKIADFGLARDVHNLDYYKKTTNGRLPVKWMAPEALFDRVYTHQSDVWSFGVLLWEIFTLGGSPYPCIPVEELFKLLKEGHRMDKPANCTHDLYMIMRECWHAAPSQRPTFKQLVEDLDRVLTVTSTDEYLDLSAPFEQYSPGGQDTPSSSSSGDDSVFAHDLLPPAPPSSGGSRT

[5] = biological target: Serine/threonine-protein kinase 38 (Homo sapiens) (UniProt Q15208); experiment: Selectivity interaction (ActivX KiNativ screen (kinase selectivity in THP-1 cell lysates)) EUB0000639a STK38; type: subcellular; details: lysate, at 5 µM
[6] = biological target: Death-associated protein kinase 1 (Homo sapiens, UniProt P53355); experiment: Selectivity interaction (KinomeScan (DiscoverX)) EUB0000607a DAPK1; details: at 10 µM
Sequence of Death-associated protein kinase 1 (P53355 whole entry, looked up): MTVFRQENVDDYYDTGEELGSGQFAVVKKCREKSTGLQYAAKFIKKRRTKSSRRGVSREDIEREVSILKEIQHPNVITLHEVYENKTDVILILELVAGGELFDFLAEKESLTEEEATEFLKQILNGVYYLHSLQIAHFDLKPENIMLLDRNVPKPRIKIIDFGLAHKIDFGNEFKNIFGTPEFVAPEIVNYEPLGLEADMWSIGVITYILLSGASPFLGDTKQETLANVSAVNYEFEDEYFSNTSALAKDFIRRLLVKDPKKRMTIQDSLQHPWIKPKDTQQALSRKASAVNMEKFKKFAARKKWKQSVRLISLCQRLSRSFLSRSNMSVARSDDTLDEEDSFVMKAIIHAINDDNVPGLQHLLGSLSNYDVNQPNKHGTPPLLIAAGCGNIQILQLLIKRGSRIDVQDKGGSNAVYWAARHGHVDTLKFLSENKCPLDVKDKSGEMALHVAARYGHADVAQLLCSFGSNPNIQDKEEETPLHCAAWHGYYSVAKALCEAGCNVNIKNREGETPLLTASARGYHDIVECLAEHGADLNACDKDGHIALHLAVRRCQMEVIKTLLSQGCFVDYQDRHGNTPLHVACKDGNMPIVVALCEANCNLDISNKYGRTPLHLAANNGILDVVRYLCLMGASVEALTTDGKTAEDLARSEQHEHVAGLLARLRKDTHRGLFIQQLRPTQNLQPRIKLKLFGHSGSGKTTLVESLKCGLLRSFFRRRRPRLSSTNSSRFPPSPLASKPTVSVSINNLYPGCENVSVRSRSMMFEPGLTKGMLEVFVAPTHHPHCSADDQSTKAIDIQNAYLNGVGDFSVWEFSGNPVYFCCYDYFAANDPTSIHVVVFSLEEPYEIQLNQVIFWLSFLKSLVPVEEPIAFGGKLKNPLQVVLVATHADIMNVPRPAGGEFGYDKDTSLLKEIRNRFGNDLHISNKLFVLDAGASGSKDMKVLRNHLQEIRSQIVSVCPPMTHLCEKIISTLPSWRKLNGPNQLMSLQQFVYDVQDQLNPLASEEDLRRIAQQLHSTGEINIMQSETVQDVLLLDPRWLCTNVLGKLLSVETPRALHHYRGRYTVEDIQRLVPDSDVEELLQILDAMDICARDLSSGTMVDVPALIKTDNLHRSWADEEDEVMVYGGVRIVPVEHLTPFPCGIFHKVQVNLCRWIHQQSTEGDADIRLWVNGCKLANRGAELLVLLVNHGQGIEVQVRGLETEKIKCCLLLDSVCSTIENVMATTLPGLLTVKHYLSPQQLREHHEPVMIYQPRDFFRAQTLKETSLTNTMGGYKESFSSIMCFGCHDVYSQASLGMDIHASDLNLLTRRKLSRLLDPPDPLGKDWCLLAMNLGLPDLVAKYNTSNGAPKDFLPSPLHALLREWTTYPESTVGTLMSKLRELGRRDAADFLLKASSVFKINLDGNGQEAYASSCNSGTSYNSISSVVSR

[7] = biological target: T2, N-lysine methyltransferase KMT5A (Homo sapiens) (UniProt Q9NQR1); experiment: Selectivity interaction (Methyltransferase screen (radiometric assays, panel of 8 PRMTs, 21 protein lysine methyltransferases, 3 DNA methyltransferases, and one RNA methyltransferase)) EUB0000271b SETD8
T2 sequence (whole entry): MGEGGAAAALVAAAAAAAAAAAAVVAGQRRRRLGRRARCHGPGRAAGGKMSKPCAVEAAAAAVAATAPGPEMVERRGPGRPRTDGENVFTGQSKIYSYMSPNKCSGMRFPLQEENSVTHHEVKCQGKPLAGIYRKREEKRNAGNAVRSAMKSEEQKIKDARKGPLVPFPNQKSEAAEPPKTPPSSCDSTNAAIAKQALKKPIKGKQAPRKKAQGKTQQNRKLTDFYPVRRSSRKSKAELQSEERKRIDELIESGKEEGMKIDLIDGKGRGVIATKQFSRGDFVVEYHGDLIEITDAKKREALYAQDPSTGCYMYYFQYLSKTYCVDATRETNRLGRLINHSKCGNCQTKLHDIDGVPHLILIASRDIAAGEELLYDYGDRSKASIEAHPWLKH

[8] = system: Phosphatidylinositol 4,5-bisphosphate 3-kinase catalytic subunit alpha isoform (Homo sapiens), P42336 [I800L]; details: at 10 µM
[9] = biological target: T3, MAP/microtubule affinity-regulating kinase 4 (Homo sapiens) (UniProt Q96L34); experiment: Selectivity interaction (Kinase panel (Carna Biosciences)) EUB0001542aTs MARK4; details: at 1 µM
T3 sequence (whole entry): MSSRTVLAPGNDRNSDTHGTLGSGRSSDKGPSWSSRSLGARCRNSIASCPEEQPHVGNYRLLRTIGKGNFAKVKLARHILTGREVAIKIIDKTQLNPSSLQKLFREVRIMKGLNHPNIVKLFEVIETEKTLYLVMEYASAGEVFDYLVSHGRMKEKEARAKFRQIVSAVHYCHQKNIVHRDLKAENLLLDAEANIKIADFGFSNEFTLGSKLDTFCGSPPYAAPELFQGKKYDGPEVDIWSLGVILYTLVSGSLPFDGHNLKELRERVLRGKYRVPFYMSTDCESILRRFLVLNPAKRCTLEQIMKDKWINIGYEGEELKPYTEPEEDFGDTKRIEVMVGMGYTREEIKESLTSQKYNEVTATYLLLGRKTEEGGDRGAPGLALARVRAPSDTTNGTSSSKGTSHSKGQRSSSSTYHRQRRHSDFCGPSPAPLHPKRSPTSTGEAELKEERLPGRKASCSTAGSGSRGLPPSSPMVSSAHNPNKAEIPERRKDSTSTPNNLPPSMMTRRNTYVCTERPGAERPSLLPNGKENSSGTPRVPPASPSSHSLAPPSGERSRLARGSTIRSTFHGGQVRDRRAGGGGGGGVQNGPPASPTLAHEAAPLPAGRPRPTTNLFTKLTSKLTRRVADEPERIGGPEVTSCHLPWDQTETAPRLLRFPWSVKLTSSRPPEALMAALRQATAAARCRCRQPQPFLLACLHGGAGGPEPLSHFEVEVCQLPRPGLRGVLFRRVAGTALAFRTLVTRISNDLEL

[10] = biological target: Rho-associated protein kinase 1 (Homo sapiens) (UniProt Q13464); experiment: Selectivity interaction (KinomeScan (DiscoverX)) EUB0000618a ROCK1; details: at 10 µM
[11] = biological target: Tyrosine-protein kinase JAK1 (Homo sapiens, UniProt P23458); experiment: Selectivity interaction (KinomeScan (DiscoverX)) EUB0000618a JAK1; details: at 10 µM
Sequence of Tyrosine-protein kinase JAK1 (P23458 whole entry): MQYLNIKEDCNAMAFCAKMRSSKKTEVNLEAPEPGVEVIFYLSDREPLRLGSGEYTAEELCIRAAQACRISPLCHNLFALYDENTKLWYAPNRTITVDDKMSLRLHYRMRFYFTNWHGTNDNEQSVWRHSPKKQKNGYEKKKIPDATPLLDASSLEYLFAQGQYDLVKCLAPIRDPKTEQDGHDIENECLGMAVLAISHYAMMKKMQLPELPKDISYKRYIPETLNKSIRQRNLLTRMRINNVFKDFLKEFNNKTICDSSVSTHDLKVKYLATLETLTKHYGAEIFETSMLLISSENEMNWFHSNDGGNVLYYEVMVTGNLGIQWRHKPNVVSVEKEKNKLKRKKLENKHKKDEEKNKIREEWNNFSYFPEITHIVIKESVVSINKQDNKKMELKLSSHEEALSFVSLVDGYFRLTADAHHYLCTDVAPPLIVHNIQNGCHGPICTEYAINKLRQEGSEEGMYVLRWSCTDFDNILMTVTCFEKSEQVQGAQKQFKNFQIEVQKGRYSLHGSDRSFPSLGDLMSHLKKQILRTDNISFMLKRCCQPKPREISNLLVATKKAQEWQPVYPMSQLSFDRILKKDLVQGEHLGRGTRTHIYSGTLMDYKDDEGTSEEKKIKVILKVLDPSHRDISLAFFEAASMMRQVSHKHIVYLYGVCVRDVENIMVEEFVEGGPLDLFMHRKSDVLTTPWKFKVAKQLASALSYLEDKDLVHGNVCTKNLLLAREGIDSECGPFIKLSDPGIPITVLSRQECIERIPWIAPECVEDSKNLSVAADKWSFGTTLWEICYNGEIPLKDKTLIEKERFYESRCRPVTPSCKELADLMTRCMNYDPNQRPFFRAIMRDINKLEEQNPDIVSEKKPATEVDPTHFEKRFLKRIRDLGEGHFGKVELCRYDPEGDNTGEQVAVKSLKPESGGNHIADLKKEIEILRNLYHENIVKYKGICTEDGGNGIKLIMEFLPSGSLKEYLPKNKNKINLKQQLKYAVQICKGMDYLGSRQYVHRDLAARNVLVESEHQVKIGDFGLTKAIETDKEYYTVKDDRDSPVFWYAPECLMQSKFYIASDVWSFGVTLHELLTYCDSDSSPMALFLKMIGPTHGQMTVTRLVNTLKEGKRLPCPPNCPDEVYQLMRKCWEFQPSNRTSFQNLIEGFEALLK

[12] = system: Tyrosine-protein kinase ABL1 (Homo sapiens), P00519 [T315I]; experiment: Selectivity interaction (Ambit KINOMEscan and KiNATiv profiling in Jurkat cells) EUB0000090b ABL1; type: cell-based; details: at 1 µM

C=CC(=O)Nc1cccc(C(=O)Nc2ccc(Nc3cc(-c4[nH]c(SC)nc4C)ccn3)cc2)c1
% of control ([1]; at 1 µM): 72%
% of control ([1]; at 5 µM): 30%

Nc1cnc(N2CCc3cc(S(=O)(=O)Nc4c(F)cc(Cl)cc4F)cc(N4CCCC4=O)c32)nc1 [TP-020n]
% of control [2]: 84%

O=C(NOC[C@H](O)CO)c1ccc(F)c(F)c1Nc1ccc(I)cc1F
% of control [3]: 100%

Cc1cc([C@@H](C)Nc2ccccc2C(=O)O)c2nc(N3CCOCC3)cc(=O)n2c1 [AZD-6482]
% of control [4]: 100%

CC[C@@H]1[C@H](F)C(=O)N[C@@H]1COc1nccc2cc(C(N)=O)c(OC)cc12 [ZIMLOVISERTIB]
% of inhibition [5]: 87.9%

CNC(=O)Nc1ccc(-c2nc(N3CC4CCC(C3)O4)c3cnn(C4CCC5(CC4)OCCO5)c3n2)cc1
% of control [6]: 12%

Cc1cc(C)cc([C@@H]2c3cc(C)ccc3NC(=O)CN2C(=O)c2ccc(Br)s2)c1
% of activity ([7]; at 1 µM): 101%
% of activity ([7]; at 10 µM): 92%

COCC(=O)NC/C=C/c1ccc2ncnc(Nc3ccc(Oc4ccc(C)nc4)c(C)c3)c2c1 [CP-724714]
% of control [8]: 100%

Cn1cc(Nc2nccc(N3CC4CCC(C3)N4C(=O)[C@@H]3CC3(F)F)n2)cn1
% of inhibition [9]: 59%

O[C@H]1CC[C@H](Nc2ncc3nc(Nc4c(F)cc(F)cc4F)n([C@H]4CCOC4)c3n2)CC1
% of control [10]: 91%
% of control [11]: 70%

CN(C)C/C=C/C(=O)Nc1ccc(C(=O)N2CCCC(Nc3ncc(Cl)c(-c4c[nH]c5ccccc45)n3)C2)cc1 (centres undefined)
% of control [12]: 100%
